# Assay results published in the supplement of paper PMC10307832.
# Tests used:
# Test in all cases: relative viability (nuclei count vs DMSO), 5 days (fraction); higher = more cells survive
# [1] = compound: O=c1[nH]cc(F)c(=O)[nH]1 [5-Fluorouracil] + Nc1nc2[nH]cc(CCc3ccc(C(=O)N[C@@H](CCC(=O)O)C(=O)O)cc3)c2c(=O)[nH]1 [Pemetrexed] (partner 0.2 µM)
# Outline: (§1)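 Lung cancer cell lines were seeded in 1536-well plates and dosed by pin tool the next day, with either a single drug or a fixed anchor-drug dose combined with five library-drug doses (not always all listed) spaced in √10 steps. Five days later, one step fixed the cells and stained their nuclei (final 0.05% Triton X-100, 1% formaldehyde, 1 ug/ml Hoechst), and nuclei were counted on 4× images. Relative viability is the nuclei count in treated wells divided by the count in vehicle wells, and each value is the median of duplicate plates.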
# [2] = compound: CN[C@@H]1C[C@H]2O[C@@](C)([C@@H]1OC)n1c3ccccc3c3c4c(c5c6ccccc6n2c5c31)C(=O)NC4 [Staurosporine] + CC(=O)c1c(C)c2cnc(Nc3ccc(N4CCNCC4)cn3)nc2n(C2CCCC2)c1=O [Palbociclib] (partner 0.5 µM)
# Outline: as §1
# Sulindac + Bortezomib = compound: CC1=C(CC(=O)O)c2cc(F)ccc2/C1=C\c1ccc([S+](C)[O-])cc1 [Sulindac] + CC(C)C[C@H](NC(=O)[C@H](Cc1ccccc1)NC(=O)c1cnccn1)B(O)O [Bortezomib] (partner 0.002 µM)
# Outline: as §1
# Sulindac + Linsitinib = compound: CC1=C(CC(=O)O)c2cc(F)ccc2/C1=C\c1ccc([S+](C)[O-])cc1 [Sulindac] + C[C@]1(O)C[C@@H](c2nc(-c3ccc4ccc(-c5ccccc5)nc4c3)c3c(N)nccn32)C1 [Linsitinib] (partner 1 µM)
# Outline: as §1
Cell Line,relative viability ([1]; first compound 0.02 µM),relative viability ([1]; first compound 0.2 µM),relative viability ([1]; first compound 0.6325 µM),relative viability ([1]; first compound 2 µM),relative viability ([2]; first compound 0.005 µM),relative viability ([2]; first compound 0.01581 µM),relative viability ([2]; first compound 0.05 µM),relative viability ([2]; first compound 0.1581 µM),relative viability ([2]; first compound 0.5 µM),relative viability (Sulindac + Bortezomib; first compound 0.08 µM),relative viability (Sulindac + Bortezomib; first compound 0.253 µM),relative viability (Sulindac + Bortezomib; first compound 0.8 µM),relative viability (Sulindac + Bortezomib; first compound 2.53 µM),relative viability (Sulindac + Bortezomib; first compound 8 µM),relative viability (Sulindac + Linsitinib; first compound 0.08 µM),relative viability (Sulindac + Linsitinib; first compound 0.253 µM),relative viability (Sulindac + Linsitinib; first compound 0.8 µM),relative viability (Sulindac + Linsitinib; first compound 2.53 µM),relative viability (Sulindac + Linsitinib; first compound 8 µM)
NCI-H1355,0.928,0.762,0.311,0.257,0.411,0.3,0.214,0.188,0.161,1.27,1.23,1.12,1.24,1.3,0.873,0.949,0.777,0.785,0.883
EKVX,0.305,0.283,,,0.266,0.143,0.152,0.168,0.0893,1,0.999,0.859,1.04,1.05,0.872,1,0.721,0.92,1.04
NCI-H520,0.625,0.742,0.541,0.41,0.272,0.262,0.159,0.116,0.12,0.585,0.599,0.51,0.399,0.764,1.24,1.1,0.739,0.997,1.33
NCI-H1993,0.559,0.49,0.577,0.525,0.776,0.685,0.526,0.395,0.339,1.11,1.1,1.03,0.945,1.29,0.741,0.674,0.789,0.735,0.82
HCC-78,0.924,0.866,0.858,0.915,0.502,0.469,0.462,0.472,0.464,0.432,0.534,0.379,0.607,0.532,0.521,0.493,0.439,0.454,0.501
NCI-H2087,0.624,0.593,0.609,0.588,0.208,0.2,0.0957,0.0793,0.0947,1.17,0.835,0.695,0.892,1.09,1.01,1.13,0.938,0.964,1.17
H3255,0.557,0.6,0.557,0.449,0.275,0.24,0.24,0.181,0.178,0.714,0.684,0.735,0.891,0.916,0.923,1.03,0.745,1.02,1.1
NCI-H2126,0.647,0.435,0.38,0.304,0.353,0.339,0.348,0.33,0.327,1.2,1.15,1.06,1.2,1.19,0.608,0.713,0.661,0.726,0.728
LC-2-ad,0.258,0.286,0.282,0.272,0.537,0.328,0.279,0.168,0.109,1.31,0.992,0.969,0.97,1.12,0.938,0.795,0.816,0.881,0.933
SK-LU-1,0.959,1.01,0.916,0.763,0.326,0.186,0.166,0.164,0.161,1.7,1.07,,0.906,1.8,1.13,1.27,1.19,1,1.5
EBC-1,,,,,,,,,,0.585,0.557,0.56,0.474,0.663,0.937,1.16,0.509,1.04,0.989
HCC-15,0.219,0.217,0.21,0.218,0.527,,0.503,0.275,0.229,1.34,1.08,0.676,1.07,1.07,0.966,0.868,0.739,0.913,0.921
NCI-H1563,0.711,0.924,0.786,0.732,,,,,,0.848,0.876,0.793,0.779,0.925,1.13,1.15,1.03,1.15,1.31
COR-L 105,1.2,1.14,0.87,0.614,0.365,0.334,0.313,0.282,0.246,0.819,0.939,0.626,0.724,1.09,1.1,0.857,0.729,0.992,1.13
NCI-H647,0.187,0.182,0.176,0.164,0.239,,0.0896,0.0475,0.0477,1.02,1.13,0.667,0.936,1.05,1.14,1.3,1.4,1.25,1.21
LU99A,0.185,0.177,0.154,0.171,0.366,0.196,0.196,0.211,0.174,1.22,1.09,1.11,0.91,1.19,0.578,0.524,0.493,0.499,0.659
NCI-H1703,,,,,,,,,,0.303,0.394,0.225,0.457,0.284,0.673,0.873,0.561,0.761,1.15
NCI-H2170,0.363,0.266,0.242,0.255,0.43,,0.314,0.218,0.176,,,,,,,,,,
NCI-H2342,0.744,0.84,0.776,0.725,0.507,0.51,0.488,0.433,0.344,,,,,,,,,,
LCLC-97TM1,0.146,0.218,0.165,0.176,0.238,0.127,0.133,0.141,0.17,0.861,0.946,,0.788,0.806,0.187,0.167,0.157,,0.209
NCI-H1299,,,,,,,,,,1.09,1.04,1.04,1.03,1.05,1.14,1.18,0.898,1.02,1.01
NCI-H322M,0.602,0.598,0.549,0.512,0.476,0.386,0.388,0.433,0.467,1.22,1.33,1.19,1.3,1.38,1.01,1.01,0.747,0.951,1.05

Cell Line,relative viability ([1]; first compound 0.02 µM),relative viability ([1]; first compound 0.2 µM),relative viability ([1]; first compound 0.6325 µM),relative viability ([1]; first compound 2 µM),relative viability ([2]; first compound 0.005 µM),relative viability ([2]; first compound 0.01581 µM),relative viability ([2]; first compound 0.05 µM),relative viability ([2]; first compound 0.1581 µM),relative viability ([2]; first compound 0.5 µM),relative viability (Sulindac + Bortezomib; first compound 0.08 µM),relative viability (Sulindac + Bortezomib; first compound 0.253 µM),relative viability (Sulindac + Bortezomib; first compound 0.8 µM),relative viability (Sulindac + Bortezomib; first compound 2.53 µM),relative viability (Sulindac + Bortezomib; first compound 8 µM),relative viability (Sulindac + Linsitinib; first compound 0.08 µM),relative viability (Sulindac + Linsitinib; first compound 0.253 µM),relative viability (Sulindac + Linsitinib; first compound 0.8 µM),relative viability (Sulindac + Linsitinib; first compound 2.53 µM),relative viability (Sulindac + Linsitinib; first compound 8 µM)
NCI-H1395,0.743,0.994,0.902,0.893,0.53,0.438,0.406,0.393,0.306,,,,,,1.09,1.07,0.993,0.948,1.18
NCI-H2023,0.212,0.129,0.126,0.115,0.234,0.186,0.0972,0.0704,0.0509,1.13,1.04,0.666,1,1.07,0.808,0.725,0.43,0.712,0.757
NCI-H1651,0.502,0.457,0.3,0.305,0.497,0.471,0.318,0.313,0.249,1.01,0.953,,0.958,1.04,1.1,1.01,0.777,0.955,1.27
HARA,0.244,0.231,0.212,0.289,0.268,0.236,0.206,0.177,0.118,1.2,1.09,,1.14,1.44,1.23,1.09,,1.06,0.851
NCI-H1944,0.523,0.527,0.249,0.179,0.319,0.242,0.223,0.203,0.204,,,,,,1.19,1.14,1,1.24,1.34
NCI-H2405,1.11,1.12,1.07,0.535,0.196,0.172,0.122,,0.0886,1.01,1.01,0.888,0.96,1.06,1.01,0.934,0.852,0.918,1.13
Calu-6,,,,,,,,,,1.11,1.14,0.915,1.02,1.13,1.29,1.07,0.738,1.03,1.11
NCI-H1650,0.362,0.335,0.353,0.286,0.238,0.138,0.147,0.118,0.0769,0.31,0.193,0.224,0.204,0.213,,,,,
NCI-H1648,0.816,0.864,0.572,0.332,0.23,0.227,0.249,0.279,0.258,,,,,,,,,,
ChaGo-K-1,0.252,0.262,0.26,0.261,0.886,,0.811,0.696,0.701,1.07,1.1,0.885,0.882,1.35,,,,,
NCI-H727,,,,,0.649,0.557,0.5,0.447,0.443,0.822,0.884,0.665,0.742,0.912,0.29,0.224,0.27,0.243,0.34
NCI-H522,0.891,1.1,1.03,0.95,1.19,0.877,,0.638,0.502,,,,,,,,,,
ABC-1,,,,,,0.224,0.226,0.258,0.193,0.328,0.281,0.279,0.311,0.31,1.22,0.806,0.627,0.629,0.741
SW 900,0.468,0.491,0.518,0.385,0.376,0.359,0.278,0.201,0.18,,,,,,,,,,
LK-2,0.294,0.35,0.264,0.201,0.798,0.555,0.49,0.426,0.287,,,,,,0.464,0.376,0.532,0.417,0.577
SK-MES-1,0.837,0.473,0.351,0.303,0.235,0.232,0.193,0.163,0.147,,,,,,1.11,1.22,0.809,1.08,1.18
NCI-H1793,0.944,0.942,0.695,0.503,0.446,,0.314,0.191,0.166,,,,,,0.856,0.77,0.471,1.12,1.12
IA-LM,,,,,,,,,,0.811,0.91,,0.977,0.89,0.527,0.681,,0.826,0.423
A549,,,,,,,,,,,,,,,0.532,0.535,,0.572,0.641
NCI-H596,0.547,0.524,0.486,0.435,,,,,,1.04,1.08,0.831,1,1.21,0.943,0.985,0.857,1.12,1.27
NCI-H358,0.177,0.182,0.172,0.169,0.107,0.081,0.102,0.0861,0.0814,,,,,,0.777,0.881,0.643,0.661,1.09
